This is an account of results in patent US6291676A, “Water-soluble derivatives of camptothecin/homocamptothecin” (priority 2000, dated 2001).

The nature of data set [1]: Fluorescence anisotropy titration: association with negatively-charged DMPG vesicles. In kind it is physicochemical. As to the method:
Vesicle Preparation. Small unilamellar vesicle (SUV) suspensions were prepared the day of an experiment by the method of Burke et al. (T. G. Burke, A. K. Mishra, M. C. Wani, and M. E. Wall, Lipid Bilayer Partitioning and Stability of Camptothecin Drugs, Biochem., 32(20), 5352 (1993)). Briefly, stock lipid suspensions containing 200 mg/mL lipid in phosphate buffered saline (PBS, pH 7.4) were prepared by Vortex mixing for 5-10 min above the TM of the lipid. The lipid dispersions were then sonicated using a bath-type sonicator (Laboratory Supplies Co., Hicksville, N.Y.) for 3-4 h until they became optically clear. […] Each type of vesicle suspension was annealed for 30 min at 37° C. and then used in an experiment.
Fluorescence Instrumentation. Steady-state fluorescence measurements were obtained on a SLM Model 9850 spectrofluorometer with a thermostated cuvette compartment. This instrument was interfaced with an IBM PS/2 model 55 SX computer. Excitation and emission spectra were recorded with an excitation resolution of 8 nm and an emission resolution of 4 nm. In all cases spectra were corrected for background fluorescence and scatter from unlabeled lipids or from solvents by subtraction of the spectrum of a blank. Steady-state fluorescence intensity measurements were made in the absence of polarizers. Steady-state anisotropy (a) measurements were determined with the instrument in the "T-format" for simultaneous measurement of two polarized intensities. […] The anisotropy was calculated from a =(IVV -GIVH)/(IVV +2GIVH), where G=IHV /IHH and the subscripts refer to vertical and horizontal orientations of the excitation and emission polarizers, respectively.
Anisotropy measurements for camptothecins were conducted using exciting light in the range of 370 nm to 400 nm and long pass filters on each emission channel in order to isolate the drug's fluorescence signal from background scatter and/or residual fluorescence. […] The combination of exciting light and emission filters allowed us to adequately separate fluorescence from background signal. […]
A general note: Polarisation of emitted light reports the rotation of a fluorescent probe.

A short description of data set [2]: Fluorescence emission spectra in solvents and vesicle suspensions. The data set is classed as physicochemical. Conditions: 37° C. The method, then:
FIG. 1 is the fluorescence emission spectra of 1 μM of 7-(1-Aminoethyl)camptothecin (7AEC) in various solvents and suspensions such as phosphate buffered saline, ethanol, and phosphate buffered saline containing small unilamellar vesicles (SUVs) composed either of dimyristoylphosphatidylcholine (DMPC) or dimyristoylphosphatidlyglycerol (DMPG). Experiments were conducted at 37° C. using exciting light of 370 nm.
FIG. 2 is the fluorescence emission spectra of 4 μM of 7-[N-(4-methyl-1-piperazino) aminomethyl]-(20S)-camptothecin (CT-17) in various solvents and suspensions such as phosphate buffered saline, ethanol, and phosphate buffered saline containing small unilamellar vesicles (SUVs) composed either of DMPC or DMPG. Experiments were conducted at 37° C. using exciting light of 370 nm.
Fluorescence Instrumentation. Steady-state fluorescence measurements were obtained on a SLM Model 9850 spectrofluorometer with a thermostated cuvette compartment. This instrument was interfaced with an IBM PS/2 model 55 SX computer. Excitation and emission spectra were recorded with an excitation resolution of 8 nm and an emission resolution of 4 nm. In all cases spectra were corrected for background fluorescence and scatter from unlabeled lipids or from solvents by subtraction of the spectrum of a blank. Steady-state fluorescence intensity measurements were made in the absence of polarizers. […]

Another data set has as its system topoisomerase I. The experiment in a line: Topoisomerase I mediated DNA cleavage (cleavable complex induction). The data set is classed as biochemical. An excerpt: Evaluation of the Relative Abilities of the Novel Polyamine Camptothecin Analogs to Induce Topoisomerase I Mediated DNA Single Strand Breaks. We have evaluated the abilities of the novel compounds of the present invention to inhibit the topoisomerase I enzyme. In these experiments the oligonucleotide was labeled at the 3'-end of the upper (scissile) strand with 32P-α-cordycepin and terminal transferase (Pommier, Y., Kohlhagen, G., Kohn, F., Leteurtre, F., Wani, M. C., and Wall, M. E. Proc. Natl. Acad. Sci. U.S.A. 92:8861-8865, 1995). Topoisomerase I (Top1) cleavage generates a 23mer that can be easily detected by electrophoresis and quantitated by Phosphorimager analysis. Tanizawa et al. (Tanizawa, A., Kohn, K. W., Kohlhagen, G., Leteurtre, F., and Pommier, Y. Biochemistry […]:7200-7206, 1995) have previously shown that camptothecin derivatives differ in the manner in which they stabilize the top1 cleavable complexes that they induce. The novel polyamine camptothecins of the present invention were compared in this assay. 0.35M NaCl was added to force top 1-mediated DNA religation and DNA cleavage was measured at various times after NaCl addition. FIG. 9 is a typical phosphoimager picture showing the timecourse of the effects of various camptothecins on the relaxation of DNA in the presence of topoisomerase I. Topoisomerase I-mediated cleavage generates DNA fragments that can be readily detected by electrophoresis and quantitated by phosphorimager analysis.
FIG. 10 is a phosphoimager picture showing the dose response of various camptothecin compounds described in the present invention on the relaxation of DNA in the presence of topoisomerase I. Topoisomerase I-mediated cleavage generates DNA fragments that can be readily detected by electrophoresis and quantitated by phosphorimager analysis as shown.
FIG. 11 contains a phosphoimager picture (bottom figure) showing the dose response effects of several of the novel polyamine camptothecins of the current invention on the relaxation of DNA in the presence of topoisomerase I. Topoisomerase I-mediated cleavage generates DNA fragments that can be readily detected by electrophoresis and quantitated by phosphorimager analysis (top figure).

For `CC[C@@]1(O)C(=O)OCc2c1cc1n(c2=O)Cc2c-1nc1ccccc1c2CNN1CCN(C)CC1` [CT-17, 7-[N-(4-methyl-1-piperazino)aminomethyl]-(20S)-camptothecin], the “Overall association constant KDMPG” value in data set [1] (PBS buffer, pH 7.4, physiological temperature, DMPG) was 800 M⁻¹. Further, the “reduction in membrane binding relative to 7AEC (negatively-charged membranes)” value in data set [1] (negatively-charged DMPG membranes) is reported as “three-fold”. Further, the “change of fluorescence emission upon introduction of lipid bilayers” value in data set [2] (PBS with lipid bilayers) is “increase in fluorescence intensity”. In data set [2] (liposomes of DMPC or DMPG, λex 370 nm), the “shift of the fluorescence emission spectra in the presence of liposomes” value is “shifts to shorter wavelength”. Moreover, the “potency at promoting DNA cleavage relative to camptothecin and SN-38” value in the data set with topoisomerase I (FIG. 11 quantitation) is “somewhat less potent”. For the same molecule, the “distribution of cleavage sites vs camptothecin or SN-38” value in the data set on topoisomerase I (topoisomerase I) is “comparable to those generated by camptothecin or 7-ethyl-10-hydroxycamptothecin (SN-38)”. Besides, the “induction of cleavable complex formation” value with topoisomerase I (topoisomerase I, 3'-32P-labeled oligonucleotide) is given as “capable of inducing cleavable complex formation”.
